This is an account of results in US7625926B2, “P-glycoprotein inhibitor, method for preparing the same and pharmaceutical composition comprising the same” (Hanmi Pharm. Co., Ltd, priority 2003, dated 2009).

Molecules are shown by their SMILES.

System in the first series: not listed separately
The series can be described thus: In vivo absorption of orally administered paclitaxel. The conditions noted are these: rats, oral 20 mg/kg paclitaxel with the compound (Control: with vehicle).
Procedure: In order to investigate the activity of the inventive compounds prepared in Examples, in vivo absorption tests were carried out as follows.
Blood samples were taken directly from the heart of each rat before and 1, 2, 4, 6, 8 and 24 hours after the administration.
Each of blood samples was centrifuged at 12,000 rpm to obtain a serum sample, 200 μl of which was mixed with 400 μl of acetonitrile (an internal standard) and the mixture was shaken to obtain an extract. The extract was centrifuged at 12,000 rpm, 4° C. for 5 min to obtain a supernatant.
Regarding `COc1cc2c(cc1OC)CN(CCc1ccc(-n3nnc(-c4cc(OC)c(OC)cc4NC(=O)c4cnc5ccccc5c4)n3)cc1)CC2` [Example 1, quinoline-3-carboxylic acid [2-(2-4-[2-(6,7-dimethoxy-3,4-dihydro-1H-isoquinolin-2-yl)-ethyl]-phenyl-2H-tetrazol-5-yl)-4,5-dimethoxy-phenyl]-amide], the “AUC (ng · hr/ml), area under the curve of blood concentration till 24 hours” value is reported as 3,032 ± 1,108 ng · hr/ml; the “Cmax (ng/ml), maximum blood concentration” value was 1,172 ± 433 ng/ml; the “Tmax (hr), time at the maximum blood concentration” value stood at 1.0 h.

A further series deals with MCF-7/Dox cell, which is MCF-7 expressing p-glycoprotein.
Assay: not given
The conditions noted are these: enhancement of anticancer activity of paclitaxel against MCF7/Dox; ED50 of paclitaxel alone / ED50 with 50 nM test compound.
In the case of `COc1cc2c(cc1OC)CN(CCc1ccc(-n3nnc(-c4cc(OC)c(OC)cc4NC(=O)c4cnc5ccccc5c4)n3)cc1)CC2` [Example 1, quinoline-3-carboxylic acid [2-(2-4-[2-(6,7-dimethoxy-3,4-dihydro-1H-isoquinolin-2-yl)-ethyl]-phenyl-2H-tetrazol-5-yl)-4,5-dimethoxy-phenyl]-amide], the “ED50^PAC/ED50” value was 20.3.

Regarding `COc1cc2c(cc1OC)CN(CCc1ccc(-n3nnc(-c4cc(OC)c(OC)cc4NC(=O)c4cnccn4)n3)cc1)CC2` [Example 12, pyrazine-2-carboxylic acid [2-(2-{4-[2-(6,7-dimethoxy-3,4-dihydro-1H-isoquinolin-2-yl)-ethyl]-phenyl}-2H-tetrazol-5-yl)-4,5-dimethoxy-phenyl]-amide], the “ED50^PAC/ED50” value is 3.0.

As for `COc1cc2c(cc1OC)CN(CCc1ccc(-n3nnc(-c4cc(OC)c(OC)cc4NC(=O)c4ccccc4)n3)cc1)CC2` [Example 13, N-[2-(2-{4-[2-(6,7-dimethoxy-3,4-dihydro-1H-isoquinolin-2-yl)-ethyl]-phenyl}-2H-tetrazol-5-yl)-4,5-dimethoxy-phenyl]-benzamide], the “ED50^PAC/ED50” value is 3.4.

For the compound `COc1cc2c(cc1OC)CN(CCc1ccc(-n3nnc(-c4cc(OC)c(OC)cc4NC(=O)c4ccc5ccccc5c4)n3)cc1)CC2` [Example 14, naphthalene-2-carboxylic acid [2-(2-{4-[2-(6,7-dimethoxy-3,4-dihydro-1H-isoquinolin-2-yl)-ethyl]-phenyl}-2H-tetrazol-5-yl)-4,5-dimethoxy-phenyl]-amide], the “ED50^PAC/ED50” value was found to be 2.6.

As for `COc1cc2c(cc1OC)CN(CCc1ccc(-n3nnc(-c4cc(OC)c(OC)cc4NC(=O)c4ccccc4F)n3)cc1)CC2` [Example 15], the “ED50^PAC/ED50” value turned out to be 4.1.

For the compound `COc1cc2c(cc1OC)CN(CCc1ccc(-n3nnc(-c4cc(OC)c(OC)cc4NC(=O)c4cccc(F)c4)n3)cc1)CC2` [Example 16, N-[2-(2-{4-[2-(6,7-dimethoxy-3,4-dihydro-1H-isoquinolin-2-yl)-ethyl]-phenyl}-2H-tetrazol-5-yl)-4,5-dimethoxy-phenyl]-3-fluoro-benzamide], the “ED50^PAC/ED50” value worked out at 6.7.

On to `COc1cc2c(cc1OC)CN(CCc1ccc(-n3nnc(-c4cc(OC)c(OC)cc4NC(=O)c4ccc(F)cc4)n3)cc1)CC2` [Example 17, N-[2-(2-{4-[2-(6,7-dimethoxy-3,4-dihydro-1H-isoquinolin-2-yl)-ethyl]-phenyl}-2H-tetrazol-5-yl)-4,5-dimethoxy-phenyl]-4-fluoro-benzamide], for which the “ED50^PAC/ED50” value was 4.0.

Consider `COc1cc2c(cc1OC)CN(CCc1ccc(-n3nnc(-c4cc(OC)c(OC)cc4NC(=O)c4ccc(F)c(F)c4)n3)cc1)CC2` [Example 18, N-[2-(2-{4-[2-(6,7-dimethoxy-3,4-dihydro-1H-isoquinolin-2-yl)-ethyl]-phenyl}-2H-tetrazol-5-yl)-4,5-dimethoxy-phenyl]-3,4-difluoro-benzamide], for which the “ED50^PAC/ED50” value was found to be 3.7.

For `COc1cc2c(cc1OC)CN(CCc1ccc(-n3nnc(-c4cc(OC)c(OC)cc4NC(=O)c4ccsc4)n3)cc1)CC2` [Example 19, thiophene-3-carboxylic acid [2-(2-{4-[2-(6,7-dimethoxy-3,4-dihydro-1H-isoquinolin-2-yl)-ethyl]-phenyl}-2H-tetrazol-5-yl)-4,5-dimethoxy-phenyl]-amide], the “ED50^PAC/ED50” value is given as 4.5.

Regarding `COc1cc2c(cc1OC)CN(CCc1ccc(-n3nnc(-c4cc(OC)c(OC)cc4NC(=O)c4ccoc4)n3)cc1)CC2` [Example 20, furan-3-carboxylic acid [2-(2-{4-[2-(6,7-dimethoxy-3,4-dihydro-1H-isoquinolin-2-yl)-ethyl]-phenyl}-2H-tetrazol-5-yl)-4,5-dimethoxy-phenyl]-amide], the “ED50^PAC/ED50” value is 3.5.

For `COc1cc2c(cc1OC)CN(CCc1ccc(-n3nnc(-c4cc(OC)c(OC)cc4NC(=O)c4cc(=O)c5ccccc5o4)n3)cc1)CC2` [Example 21, 4-oxo-4H-chromen-2-carboxylic acid [2-(2-{4-[2-(6,7-dimethoxy-3,4-dihydro-1H-isoquinolin-2-yl)-ethyl]-phenyl}-2H-tetrazol-5-yl)-4,5-dimethoxy-phenyl]-amide], the “ED50^PAC/ED50” value stood at 60.1.

Take `COc1cc2c(cc1OC)CN(CCc1ccc(-n3nnc(-c4cc(OC)c(OC)cc4NC(=O)c4cc(=O)c5cc(C)ccc5o4)n3)cc1)CC2` [Example 22, 6-methyl-4-oxo-4H-chromene-2-carboxylic acid [2-(2-{4-[2-(6,7-dimethoxy-3,4-dihydro-1H-isoquinolin-2-yl)-ethyl]-phenyl}-2H-tetrazol-5-yl)-4,5-dimethoxy-phenyl]-amide]: the “ED50^PAC/ED50” value is listed as 73.4.

Regarding `COc1cc2c(cc1OC)CN(CCc1ccc(-n3nnc(-c4cc(OC)c(OC)cc4NC(=O)c4cc(=O)c5c(OC)cccc5o4)n3)cc1)CC2` [Example 23, 5-methoxy-4-oxo-4H-chromene-2-carboxylic acid [2-(2-{4-[2-(6,7-dimethoxy-3,4-dihydro-1H-isoquinolin-2-yl)-ethyl]-phenyl}-2H-tetrazol-5-yl)-4,5-dimethoxy-phenyl]-amide], the “ED50^PAC/ED50” value amounted to 49.9.

Take `COc1cc2c(cc1OC)CN(CCc1ccc(-n3nnc(-c4cc(OC)c(OC)cc4NC(=O)c4cc(=O)c5cc(F)ccc5o4)n3)cc1)CC2` [Example 24, 6-fluoro-4-oxo-4H-chromene-2-carboxylic acid [2-(2-{4-[2-(6,7-dimethoxy-3,4-dihydro-1H-isoquinolin-2-yl)-ethyl]-phenyl}-2H-tetrazol-5-yl)-4,5-dimethoxy-phenyl]-amide]: the “ED50^PAC/ED50” value was determined as 39.3.

`COc1cc2c(cc1OC)CN(CCc1ccc(-n3nnc(-c4cc(OC)c(OC)cc4NC(=O)c4cc(=O)c5cc(Br)ccc5o4)n3)cc1)CC2` [Example 25, 6-bromo-4-oxo-4H-chromene-2-carboxylic acid [2-(2-{4-[2-(6,7-dimethoxy-3,4-dihydro-1H-isoquinolin-2-yl)-ethyl]-phenyl}-2H-tetrazol-5-yl)-4,5-dimethoxy-phenyl]-amide]: the “ED50^PAC/ED50” value worked out at 28.6.

`COc1cc2c(cc1OC)CN(CCc1ccc(-n3nnc(-c4cc(OC)c(OC)cc4NC(=O)c4cnnc5ccccc45)n3)cc1)CC2` [Example 26, cinoline-4-carboxylic acid [2-(2-{4-[2-(6,7-dimethoxy-3,4-dihydro-1H-isoquinolin-2-yl)-ethyl]-phenyl}-2H-tetrazol-5-yl)-4,5-dimethoxy-phenyl]-amide]: the “ED50^PAC/ED50” value worked out at 24.0.

On to `COc1cc2c(cc1OC)CN(CCc1ccc(-n3nnc(-c4cc(OC)c(OC)cc4NC(=O)c4coc5ccccc5c4=O)n3)cc1)CC2` [Example 27, 4-oxo-4H-chromene-3-carboxylic acid [2-(2-{4-[2-(6,7-dimethoxy-3,4-dihydro-1H-isoquinolin-2-yl)-ethyl]-phenyl}-2H-tetrazol-5-yl)-4,5-dimethoxy-phenyl]-amide], for which the “ED50^PAC/ED50” value is 2.1.

For `COc1cc2c(cc1OC)CN(CCc1ccc(-n3nnc(-c4cc(F)c(F)cc4NC(=O)c4cnc5ccccc5c4)n3)cc1)CC2` [Example 28, quinoline-3-carboxylic acid [2-(2-{4-[2-(6,7-dimethoxy-3,4-dihydro-1H-isoquinolin-2-yl)-ethyl]-phenyl}-2H-tetrazol-5-yl)-4,5-difluoro-phenyl]-amide], the “ED50^PAC/ED50” value is reported as 19.9.

Turning to `COc1cc2c(cc1OC)CN(CCSc1ccc(-n3nnc(-c4cc(OC)c(OC)cc4NC(=O)c4cnc5ccccc5c4)n3)cc1)CC2` [Example 29, quinoline-3-carboxylic acid [2-(2-{4-[2-(6,7-dimethoxy-3,4-dihydro-1H-isoquinolin-2-yl)-ethylsulfanyl]-phenyl}-2H-tetrazol-5-yl)-4,5-dimethoxy-phenyl]-amide], the “ED50^PAC/ED50” value is given as 21.3.

Consider `COc1cc2c(cc1OC)CN(CCc1ccc(-n3nnc(-c4cc(OC)c(OC)cc4NC(=O)c4cnc5ccccc5c4)n3)cc1)CC2` [Example 30], for which the “ED50^PAC/ED50” value amounted to 2.6.

As for `COc1cc2c(cc1OC)CN(CCc1ccc(-n3nnc(-c4cc(OC)c(OC)cc4NC(=O)C=Cc4ccccc4)n3)cc1)CC2` [Example 31, N-[2-(2-{4-[2-(6,7-dimethoxy-3,4-dihydro-1H-isoquinolin-2-yl)-ethyl]-phenyl}-2H-tetrazol-5-yl)-4,5-dimethoxy-phenyl]-3-phenyl-acrylamide], the “ED50^PAC/ED50” value is 2.7.

For the compound `COc1cc2c(cc1OC)CN(CCc1ccc(-n3nnc(-c4cc(OC)c(OC)cc4NC(=O)C=Cc4cnc5ccccc5c4)n3)cc1)CC2` [Example 32, N-[2-(2-{4-[2-(6,7-dimethoxy-3,4-dihydro-1H-isoquinolin-2-yl)-ethyl]-phenyl}-2H-tetrazol-5-yl)-4,5-dimethoxy-phenyl]-3-quinolin-3-yl-acrylamide], the “ED50^PAC/ED50” value is recorded as 19.2.

With `COc1ccc(CCN(C)CCc2ccc(-n3nnc(-c4cc(OC)c(OC)cc4NC(=O)c4cc(=O)c5ccccc5o4)n3)cc2)cc1OC` [Example 33, 4-oxo-4H-chromene-2-carboxylic acid (2-{2-[4-(2-{[2-(3,4-dimethoxy-phenyl)-ethyl]-methyl-amino}-ethyl)-phenyl]-2H-tetrazol-5-yl}-4,5-dimethoxy-phenyl)-amide], the “ED50^PAC/ED50” value came to 23.0.
